Results from patent publication US20240374558A1, “PREPARATION OF PHENE[…] […] STEREOISOMERS THEREOF AND PRECURSORS THEREOF” (priority 2022, published 2024).
Entries after “also recorded” stand apart in the source; their conditions may differ.

System: rat forced swim test (FST)
Test: Rat forced swim test (FST)
Type: in vivo
Details: single dose 10 mg/kg, IP, 30 min before testing
Description: The forced swim test (FST) is a classic model to assess the antidepressant-like activity of compounds that has been in use for over 40 years (Porsolt et al. (1977) Nature 266:730-732; Detke et al. (1995) Psychopharmacology 121:66-72). […] A single dose of 5 mg/kg methylone reduces immobility by approximately 50% compared to vehicle-treated controls, whereas a 15 mg/kg dose reduces immobility by nearly 100%. Accompanying changes in climbing and/or swimming behavior reflect noradrenergic and serotonergic activities of methylone, respectively.
All FST studies are performed and scored by an experimenter blind to treatment group and according to standard protocols. Briefly, rats are placed in a circular plexiglass container filled with water. Water temperature is maintained at 22-25° C. and changed for every animal. Day 1 (Training) consists of a 15 min acclimation trial, and Day 2 (Testing, 24 h later) consists of the 5 min test. A time sampling procedure is employed where animals are observed every 5 seconds for the duration of the test session (60 counts or 5 minutes) and scored for immobility (defined as the failure to struggle), swimming (defined as a circular movement around the tank), or climbing (defined as an upwards escape behavior). Data are expressed as the percent of the testing session (e.g., the number of immobility counts divided by 60). A p-value less than 0.05 indicates statistical significance after typical statistical analyses (e.g., unpaired t-test or ANOVA).
To determine that the prodrug and/or enantiomer has an antidepressant-like effect and to compare it to methylone, rats are treated with each compound 30 min prior to testing. Additional tests are run 24, 72, 168 hours post-dose or longer. Effects on Fear Extinction in a Model of Post-Traumatic Stress Disorder (PTSD)
Racemic methylone (10 mg/kg, IP) has a maximal antidepressant-like effect in the rat forced swim test (FST), reducing immobility by nearly 100% compared to vehicle treated controls. […]

SMILES | antidepressant-like effect (immobility) compared to vehicle (10 mg/kg) | antidepressant-like effect (immobility) compared to vehicle
CN[C@@H](C)C(=O)c1ccc2c(c1)OCO2 [(S)-methylone] | Mimics the Rapid and Robust Antidepressant-like Activity of Racemic Methylone; also recorded: mimicked the rapid and robust antidepressant-like effect of racemic methylone | –
CN[C@H](C)C(=O)c1ccc2c(c1)OCO2 [(R)-methylone] | – | no effect
